Experimental data: patent publication US7176316B2, “Amino-piperidine derivatives” (Hoffmann-La Roche Inc., priority 2003, dated 2007)

These compounds were tested against T1, hGlyT-1b (Homo sapiens, UniProt P48067) (assay: Glycine uptake inhibition assay (hGlyT-1b), [3H]-glycine uptake in transfected CHO cells). Conditions: not given.
T1 sequence (P48067 1-652 isoform P48067-3): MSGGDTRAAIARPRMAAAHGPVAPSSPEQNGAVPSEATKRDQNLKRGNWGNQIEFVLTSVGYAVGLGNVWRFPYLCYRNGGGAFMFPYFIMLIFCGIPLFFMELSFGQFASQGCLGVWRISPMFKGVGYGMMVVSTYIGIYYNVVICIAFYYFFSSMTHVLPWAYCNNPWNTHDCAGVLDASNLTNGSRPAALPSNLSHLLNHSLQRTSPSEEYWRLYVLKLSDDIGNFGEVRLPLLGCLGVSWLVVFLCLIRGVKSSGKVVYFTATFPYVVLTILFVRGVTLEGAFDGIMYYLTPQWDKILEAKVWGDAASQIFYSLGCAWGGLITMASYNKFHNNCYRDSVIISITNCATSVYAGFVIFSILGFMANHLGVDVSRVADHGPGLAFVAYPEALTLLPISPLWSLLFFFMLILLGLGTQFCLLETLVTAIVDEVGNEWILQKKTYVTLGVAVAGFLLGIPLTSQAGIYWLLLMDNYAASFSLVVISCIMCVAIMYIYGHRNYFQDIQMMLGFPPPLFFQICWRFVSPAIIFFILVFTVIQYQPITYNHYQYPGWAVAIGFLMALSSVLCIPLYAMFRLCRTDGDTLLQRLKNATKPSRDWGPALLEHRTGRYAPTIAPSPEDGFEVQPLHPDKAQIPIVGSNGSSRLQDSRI

Compound | IC50 [µM]
O=S(=O)(c1ccc(Cl)c(Cl)c1)N(c1ccccc1)C1CCN([C@@H]2CCCC[C@@H]2c2ccccc2)CC1 (racemic) [Example 1, (+/−)-3,4-Dichloro-N-phenyl-N-[cis-1-(2-phenyl-cyclohexyl)-piperidin-4-yl]-benzenesulfonamide] | 0.048
COc1ccc(S(=O)(=O)N(c2cccc(OC)c2)C2CCN([C@@H]3CCCC[C@@H]3c3ccccc3)CC2)cc1 (racemic) [Example 3, (+/−)-4-Methoxy-N-(3-methoxy-phenyl)-N-[cis-1-(2-phenyl-cyclohexyl)-piperidin-4-yl]-benzenesulfonamide] | 0.094
COc1ccc(S(=O)(=O)N(c2ccccc2)C2CCN([C@@H]3CCCC[C@@H]3c3ccccc3)CC2)cc1 (racemic) [Example 11, (+/−)-4-Methoxy-N-phenyl-N-[cis-1-(2-phenyl-cyclohexyl)-piperidin-4-yl]-benzenesulfonamide] | 0.056
Cc1ccc(S(=O)(=O)N(c2ccc(F)cc2)C2CCN([C@@H]3CCCC[C@@H]3c3ccccc3)CC2)cc1 (racemic) [Example 67, (+/−)-N-(4-Fluoro-phenyl)-4-methyl-N-[cis-1-(2-phenyl-cyclohexyl)-piperidin-4-yl]-benzenesulfonamide] | 0.099
COc1ccc(S(=O)(=O)N(c2ccc(F)cc2)C2CCN([C@@H]3CCCC[C@@H]3c3ccccc3)CC2)cc1 (racemic) [Example 69, (+/−)-N-(4-Fluoro-phenyl)-4-methoxy-N-[cis-1-(2-phenyl-cyclohexyl)-piperidin-4-yl]-benzenesulfonamide] | 0.029
COc1ccc(S(=O)(=O)N(c2cccc(C(F)(F)F)c2)C2CCN([C@@H]3CCCC[C@@H]3c3ccccc3)CC2)cc1 (racemic) [Example 75, (+/−)-4-Methoxy-N-[cis-1-(2-phenyl-cyclohexyl)-piperidin-4-yl]-N-(3-trifluoromethyl-phenyl)-benzenesulfonamide] | 0.068
COc1ccc(S(=O)(=O)N(c2ccccc2)C2CCN([C@@H]3CCCC[C@@]3(O)c3ccccc3)CC2)cc1 (racemic) [Example 99, (+/−)-N-[cis-1-(2-Hydroxy-2-phenyl-cyclohexyl)-piperidin-4-yl]-4-methoxy-N-phenyl-benzenesulfonamide] | 0.028
COc1ccc(S(=O)(=O)N(c2ccc(Cl)cc2)C2CCN([C@@H]3CCCC[C@@]3(O)c3ccccc3)CC2)cc1 (racemic) [Example 102, (+/−)-N-(4-Chloro-phenyl)-N-[cis-1-(2-Hydroxy-2-phenyl-cyclohexyl)-piperidin-4-yl]-4-methoxy-benzenesulfonamide] | 0.092
COc1ccc(S(=O)(=O)N(c2ccc(Cl)cc2)C2CCN([C@@H]3CCCC[C@@]3(O)c3cccnc3)CC2)cc1 (racemic) [Example 105, (+/−)-N-(4-Chloro-phenyl)-N-[cis-1-(2-hydroxy-2-pyridin-3-yl-cyclohexyl)-piperidin-4-yl]-4-methoxy-benzenesulfonamide] | 0.084
COc1ccc(S(=O)(=O)N(c2ccccc2)C2CCN([C@@H]3CCCC[C@@]3(O)c3ccc(Cl)cc3)CC2)cc1 (racemic) [Example 107, (+/−)-N-{cis-1-[2-(4-Chloro-phenyl)-2-hydroxy-cyclohexyl]-piperidin-4-yl}-4-methoxy-N-phenyl-benzenesulfonamide] | 0.083
COc1ccc(S(=O)(=O)N(c2ccccc2)C2CCN([C@@H]3CCCC[C@@]3(O)c3ccc(F)cc3)CC2)cc1 (racemic) [Example 108, (+/−)-N-{cis-1-[2-(4-Fluoro-phenyl)-2-hydroxy-cyclohexyl]-piperidin-4-yl}-4-methoxy-N-phenyl-benzenesulfonamide] | 0.04
COc1ccc(S(=O)(=O)N(c2ccccc2)C2CCN([C@@H]3CCCC[C@@]3(O)c3ccncc3)CC2)cc1 (racemic) [Example 109, (+/−)-N-[cis-1-(2-Hydroxy-2-pyridin-4-yl-cyclohexyl)-piperidin-4-yl]-4-methoxy-N-phenyl-benzenesulfonamide] | 0.073
COc1ccc(S(=O)(=O)N(c2ccccc2)C2CCN([C@@H]3CCCC[C@@]3(O)c3cccnc3)CC2)cc1 (racemic) [Example 110, (+/−)-N-[cis-1-(2-Hydroxy-2-pyridin-3-yl-cyclohexyl)-piperidin-4-yl]-4-methoxy-N-phenyl-benzenesulfonamide] | 0.076
COc1ccc(S(=O)(=O)N(c2ccccc2)C2CCN([C@@H]3CCCC[C@@]3(O)c3ccccc3C)CC2)cc1 (racemic) [Example 111, (+/−)-N-[cis-1-(2-Hydroxy-2-o-tolyl-cyclohexyl)-piperidin-4-yl]-4-methoxy-N-phenyl-benzenesulfonamide] | 0.068
COc1ccc(S(=O)(=O)N(c2ccc(F)cc2)C2CCN([C@@H]3CCCC[C@@]3(O)c3ccccc3)CC2)cc1 (racemic) [Example 112, (+/−)-N-(4-Fluoro-phenyl)-N-[cis-1-(2-Hydroxy-2-phenyl-cyclohexyl)-piperidin-4-yl]-4-methoxy-benzenesulfonamide] | 0.061
COc1ccc(S(=O)(=O)N(c2ccc(F)cc2)C2CCN([C@@H]3CCCC[C@@]3(O)c3ccc(F)cc3)CC2)cc1 (racemic) [Example 114, (+/−)-N-(4-Fluoro-phenyl)-N-{cis-1-[2-(4-fluoro-phenyl)-2-hydroxy-cyclohexyl]-piperidin-4-yl}-4-methoxy-benzenesulfonamide] | 0.066
COc1ccc(S(=O)(=O)N(c2ccc(F)cc2)C2CCN([C@@H]3CCCC[C@@]3(O)c3ccncc3)CC2)cc1 (racemic) [Example 115, (+/−)-N-(4-Fluoro-phenyl)-N-[cis-1-(2-hydroxy-2-pyridin-4-yl-cyclohexyl)-piperidin-4-yl]-4-methoxy-benzenesulfonamide] | 0.071
COc1ccc(S(=O)(=O)N(c2cccc(C(F)(F)F)c2)C2CCN([C@@H]3CCCC[C@@]3(O)c3ccncc3)CC2)cc1 (racemic) [Example 120, (+/−)-N-[cis-1-(2-Hydroxy-2-pyridin-4-yl-cyclohexyl)-piperidin-4-yl]-4-methoxy-N-(3-trifluoromethyl-phenyl)-benzenesulfonamide] | 0.091
COc1ccc(S(=O)(=O)N(c2cccc(C(F)(F)F)c2)C2CCN([C@@H]3CCCC[C@@]3(O)c3cccnc3)CC2)cc1 (racemic) [Example 121, (+/−)-N-[cis-1-(2-Hydroxy-2-pyridin-3-yl-cyclohexyl)-piperidin-4-yl]-4-methoxy-N-(3-trifluoromethyl-phenyl)-benzenesulfonamide] | 0.071
COc1ccc(S(=O)(=O)N(c2cccc(OC)c2)C2CCN([C@@H]3CCCC[C@@]3(O)c3ccccc3)CC2)cc1 (racemic) [Example 123, (+/−)-N-[cis-1-(2-Hydroxy-2-phenyl-cyclohexyl)-piperidin-4-yl]-4-methoxy-N-(3-methoxy-phenyl)-benzenesulfonamide] | 0.095
COc1ccc(S(=O)(=O)N(c2cccc(OC)c2)C2CCN([C@@H]3CCCC[C@@]3(O)c3ccc(F)cc3)CC2)cc1 (racemic) [Example 125, (+/−)-N-{cis-1-[2-(4-Fluoro-phenyl)-2-hydroxy-cyclohexyl]-piperidin-4-yl}-4-methoxy-N-(3-methoxy-phenyl)-benzenesulfonamide] | 0.096
COc1ccc(S(=O)(=O)N(c2ccccc2)C2CCN([C@@H]3CCCC[C@]3(O)c3ccccc3)CC2)cc1 (racemic) [Example 159, (+/−)-N-[trans-1-(2-Hydroxy-2-phenyl-cyclohexyl)-piperidin-4-yl]-4-methoxy-N-phenyl-benzenesulfonamide] | 0.068
COc1ccc(S(=O)(=O)N(c2ccc(F)cc2)C2CCN([C@@H]3COCC[C@@]3(O)c3ccccc3)CC2)cc1 (racemic) [Example 163, (+/−)-N-(4-Fluoro-phenyl)-N-[cis-1-(4-hydroxy-4-phenyl-tetrahydro-pyran-3-yl)-piperidin-4-yl]-4-methoxy-benzenesulfonamide] | 0.085
COc1ccc(S(=O)(=O)N(c2ccccc2)C2CCN([C@@H]3CCCC[C@@]3(O)c3ccccc3)CC2)cc1 [Example 100, (+)-N-[cis-1-(2-Hydroxy-2-phenyl-cyclohexyl)-piperidin-4-yl]-4-methoxy-N-phenyl-benzenesulfonamide] | 0.015

Same assay, conditions: read-out: IC50 (μM) at GlyT-1

Compound | IC50 [µM]
(+)-4-Methoxy-N-phenyl-N-[cis-1-(2-phenyl-cyclohexyl)-piperidin-4-yl]-benzenesulfonamide [Example 96] | 0.049
